Assay: molar heat capacity at constant volume
Conditions: Liquid, Vacuum adiabatic calorimetry

CC(C)C [2-methylpropane]
Conditions	molar heat capacity at constant volume [J/K/mol]
279.34 K, 13450 kPa	95.2
280.46 K, 32342 kPa	96.46
281.62 K, 15113 kPa	95.82
283.54 K, 16491 kPa	96.18
283.66 K, 2372 kPa	95.67
285.76 K, 3730 kPa	96.28
285.81 K, 18136 kPa	97.4
287.72 K, 19487 kPa	97.22
287.93 K, 5135 kPa	96.68
289.99 K, 21118 kPa	98.16
290.04 K, 6483 kPa	97.37
291.87 K, 22438 kPa	98.44
292.18 K, 7863 kPa	98.07
294.14 K, 24048 kPa	99.1
294.3 K, 9205 kPa	98
296.01 K, 25350 kPa	99.94
296.42 K, 10563 kPa	98.75
298.28 K, 26943 kPa	99.99
298.53 K, 11894 kPa	98.97
300.14 K, 28222 kPa	100.48
300.64 K, 13229 kPa	100.03
302.39 K, 29793 kPa	100.74
302.75 K, 14551 kPa	100.42
303.81 K, 2271 kPa	99.83
304.25 K, 31058 kPa	101.52
304.85 K, 15868 kPa	101.01
306.07 K, 3504 kPa	100.71
306.5 K, 32612 kPa	102.04
306.98 K, 17187 kPa	101.25
308.12 K, 4631 kPa	100.8
309.04 K, 18478 kPa	102.38
310.38 K, 5860 kPa	101.98
311.17 K, 19783 kPa	102.14
312.42 K, 6973 kPa	101.82
312.62 K, 2143 kPa	102.01
313.23 K, 21063 kPa	102.98
314.68 K, 8197 kPa	102.64
314.81 K, 3247 kPa	102.19
315.35 K, 22355 kPa	103.37
316.7 K, 9293 kPa	102.97
316.95 K, 4329 kPa	103.28
317.39 K, 23611 kPa	103.51
318.98 K, 10517 kPa	103.88
319.15 K, 5436 kPa	103.12
319.53 K, 24899 kPa	104.29
320.98 K, 11596 kPa	104.6
321.27 K, 6508 kPa	104.19
321.55 K, 26133 kPa	104.78
322.43 K, 2027 kPa	103.88
323.27 K, 12819 kPa	104.79
323.48 K, 7612 kPa	104.96
323.69 K, 27412 kPa	105.09
324.79 K, 3113 kPa	105.07
325.25 K, 13880 kPa	105.73
325.59 K, 8668 kPa	104.99
325.7 K, 28633 kPa	106.08
326.81 K, 4037 kPa	105.22
327.54 K, 15099 kPa	105.76
327.82 K, 9782 kPa	105.71
327.84 K, 29902 kPa	106.3
329.14 K, 5110 kPa	105.78
329.51 K, 16147 kPa	106.45
329.84 K, 31107 kPa	106.78
329.89 K, 10815 kPa	106.1
331.17 K, 6040 kPa	106.74
331.81 K, 17362 kPa	106.57
331.98 K, 32367 kPa	107.91
332.14 K, 11928 kPa	106.39
333.49 K, 7102 kPa	106.91
333.76 K, 18392 kPa	107.16
333.97 K, 33555 kPa	107.88
334.19 K, 12947 kPa	107.66
335.53 K, 8034 kPa	107.69
336.06 K, 19603 kPa	107.61
336.45 K, 14061 kPa	107.61
337.84 K, 9085 kPa	108.12
338 K, 20617 kPa	108.51
338.49 K, 15066 kPa	108.51
339.89 K, 10016 kPa	108.49
340.31 K, 21824 kPa	108.42
340.75 K, 16177 kPa	108.82
342.19 K, 11067 kPa	108.69
342.23 K, 22826 kPa	110.23
342.77 K, 17169 kPa	109.53
344.24 K, 11989 kPa	109.21
344.55 K, 24029 kPa	109.59

Reference: the NIST ThermoML archive (doi:10.1021/je9001575)
